Values joined by “and” are separate entries in the source; they are usually repeats but may differ in a detail not shown here. Equal values may be shown once. Inconclusive results and toxic doses are left out.
Test system: CD2F1 mice, L1210 leukemia ip, survival T/C
Experiment: NCI In Vivo Anticancer Drug Screen. Data for tumor model L1210 Leukemia (intraperitoneal) in CD2F1 (CDF1) mice
Conditions: higher = longer survival
Outline: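 Transplantable tumor in mice; compound-treated vs vehicle-treated groups. Read-out = treated/control ratio of the measured endpoint.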

[1] = endpoint: median survival time, dose: 50.0 mg/kg/injection, schedule: Q01DX005 (ip), vehicle: saline with Tween-80
[2] = endpoint: median survival time, dose: 100.0 mg/kg/injection, schedule: Q01DX005 (ip), vehicle: saline with Tween-80
[3] = endpoint: median survival time, dose: 200.0 mg/kg/injection, schedule: Q01DX005 (ip), vehicle: saline with Tween-80
[4] = endpoint: mean survival time, dose: 12.5 mg/kg/injection, schedule: Q04DX003 (ip), vehicle: saline
[5] = endpoint: mean survival time, dose: 25.0 mg/kg/injection, schedule: Q04DX003 (ip), vehicle: saline

With `O=C1CC(NC(=O)C(F)(F)F)C(=O)O1` (stereo unspecified) the T/C (endpoint: mean survival time, dose: 100.0 mg/kg/injection, schedule: Q04DX003 (ip), vehicle: saline) was 94 % of control, the T/C (endpoint: mean survival time, dose: 200.0 mg/kg/injection, schedule: Q04DX003 (ip), vehicle: saline) was 95 % of control and the T/C (endpoint: mean survival time, dose: 400.0 mg/kg/injection, schedule: Q04DX003 (ip), vehicle: saline) was 94 % of control.
`Cc1ccc(S(=O)(=O)C[n+]2ccc(C(=O)c3ccccc3)cc2)cc1` was tested, and the T/C (endpoint: mean survival time, dose: 25.0 mg/kg/injection, schedule: Q04DX002 (ip), vehicle: saline with Tween-80) was 90 % of control, the T/C (endpoint: mean survival time, dose: 50.0 mg/kg/injection, schedule: Q04DX002 (ip), vehicle: saline with Tween-80) was 97 % of control and the T/C (endpoint: mean survival time, dose: 100.0 mg/kg/injection, schedule: Q04DX002 (ip), vehicle: saline with Tween-80) was 97 % of control and 104 % of control.
`OCC12OCC(O1)C(O)C(O)C2O` (stereo unspecified) was tested, and the T/C (endpoint: mean survival time, dose: 100.0 mg/kg/injection, schedule: Q01DX009 (ip), vehicle: saline) was 97 % of control, the T/C (endpoint: mean survival time, dose: 200.0 mg/kg/injection, schedule: Q01DX009 (ip), vehicle: saline) was 103 % of control and the T/C (endpoint: mean survival time, dose: 400.0 mg/kg/injection, schedule: Q01DX009 (ip), vehicle: saline) was 98 % of control.
`O=c1cc(Cl)ncn1C1OC(CO)C(O)C1O` (stereo unspecified) was tested, and the T/C (endpoint: median survival time, dose: 12.5 mg/kg/injection, schedule: Q01DX005 (ip), vehicle: saline) was 108 % of control, the T/C (endpoint: median survival time, dose: 25.0 mg/kg/injection, schedule: Q01DX005 (ip), vehicle: saline) was 104 % of control and the T/C (endpoint: median survival time, dose: 50.0 mg/kg/injection, schedule: Q01DX005 (ip), vehicle: saline) was 95 % of control. The T/C (endpoint: median survival time, dose: 100.0 mg/kg/injection, schedule: Q01DX005 (ip), vehicle: saline) was 97 % of control and the T/C (endpoint: median survival time, dose: 200.0 mg/kg/injection, schedule: Q01DX005 (ip), vehicle: saline) was 97 % of control.
In the case of `O=S1(=O)CCC2CCCCC2C1` (stereo unspecified), the T/C (endpoint: mean survival time, dose: 12.5 mg/kg/injection, schedule: Q04DX003 (ip), vehicle: saline with Tween-80) is reported as 103 % of control and the T/C (endpoint: mean survival time, dose: 25.0 mg/kg/injection, schedule: Q04DX003 (ip), vehicle: saline with Tween-80) is reported as 100 % of control.
In the case of `CC(=O)OCC1OC(c2cccc3c2c2ccccc2n3S(=O)(=O)c2ccccc2)C(O)C1O` (stereo unspecified), the T/C (endpoint: median survival time, dose: 12.5 mg/kg/injection, schedule: Q01DX005 (ip), vehicle: saline with Tween-80) is reported as 110 % of control, the T/C (endpoint: median survival time, dose: 25.0 mg/kg/injection, schedule: Q01DX005 (ip), vehicle: saline with Tween-80) is reported as 107 % of control and the T/C [1] is reported as 96 % of control. The T/C [2] was 98 % of control and the T/C [3] was 98 % of control.
With `NC(=O)c1csc(C2OC(COP(=O)(O)O)C(O)C2O)n1` (stereo unspecified) the T/C (endpoint: mean survival time, dose: 200.0 mg/kg/injection, schedule: Q01DX005 (ip), vehicle: water) was 259 % of control, the T/C (endpoint: mean survival time, dose: 400.0 mg/kg/injection, schedule: Q01DX005 (ip), vehicle: water) was 155 % of control and 183 % of control and the T/C (endpoint: mean survival time, dose: 600.0 mg/kg/injection, schedule: Q01DX005 (ip), vehicle: water) was 160 % of control. For the same compound, the T/C (endpoint: mean survival time, dose: 800.0 mg/kg/injection, schedule: Q01DX005 (ip), vehicle: water) was 196 % of control.
For `NCCN1CCc2ccccc2C1`, the T/C (endpoint: mean survival time, dose: 6.25 mg/kg/injection, schedule: Q04DX003 (ip), vehicle: saline) was 101 % of control, the T/C [4] was 106 % of control and the T/C [5] was 101 % of control.
`O=C(C[n+]1ccc2ccccc2c1)c1ccccc1` was tested, and the T/C (endpoint: mean survival time, dose: 25.0 mg/kg/injection, schedule: Q04DX003 (ip), vehicle: saline sonified) was 98 % of control and the T/C (endpoint: mean survival time, dose: 50.0 mg/kg/injection, schedule: Q04DX003 (ip), vehicle: saline sonified) was 93 % of control.
For `CCN(CC)C(C)COC(=O)c1ccc(N)cc1` (stereo unspecified), the T/C [4] was 103 % of control, the T/C [5] was 103 % of control and the T/C (endpoint: mean survival time, dose: 50.0 mg/kg/injection, schedule: Q04DX003 (ip), vehicle: saline) was 111 % of control.
In the case of `CCn1c(C)[n+](CC)c2ccc(C(F)(F)F)cc21`, the T/C (endpoint: mean survival time, dose: 75.0 mg/kg/injection, schedule: Q01DX001 (ip), vehicle: saline) is reported as 94 % of control and the T/C (endpoint: mean survival time, dose: 150.0 mg/kg/injection, schedule: Q01DX001 (ip), vehicle: saline) is reported as 100 % of control.
`ClC1(Cl)Cc2ccccc21` was tested, and the T/C (endpoint: mean survival time, dose: 266.0 mg/kg/injection, schedule: Q04DX003 (ip), vehicle: saline sonified) was 96 % of control, the T/C (endpoint: mean survival time, dose: 400.0 mg/kg/injection, schedule: Q04DX003 (ip), vehicle: saline sonified) was 88 % of control and the T/C (endpoint: mean survival time, dose: 600.0 mg/kg/injection, schedule: Q04DX003 (ip), vehicle: saline sonified) was 100 % of control. For the same compound, the T/C [1] was 102 % of control, the T/C [2] was 113 % of control and the T/C [3] was 102 % of control.

From PubChem BioAssay AID256 (DTP/NCI, 2004)
